{"source": "patent US9879036B2", "about": "“Mitochondrial aldehyde dehydrogenase-2 binding compounds and methods of use thereof” (Aviv Therapeutics, Inc., priority 2014, dated 2018)", "key": {"ALDH2 [1]": {"molecular_target": "T1, ALDH2 (Homo sapiens, UniProt P05091)", "T1 construct": "His-tag (N); made in house; host or cells: E. coli BL21", "T1 sequence (P05091 18-517)": "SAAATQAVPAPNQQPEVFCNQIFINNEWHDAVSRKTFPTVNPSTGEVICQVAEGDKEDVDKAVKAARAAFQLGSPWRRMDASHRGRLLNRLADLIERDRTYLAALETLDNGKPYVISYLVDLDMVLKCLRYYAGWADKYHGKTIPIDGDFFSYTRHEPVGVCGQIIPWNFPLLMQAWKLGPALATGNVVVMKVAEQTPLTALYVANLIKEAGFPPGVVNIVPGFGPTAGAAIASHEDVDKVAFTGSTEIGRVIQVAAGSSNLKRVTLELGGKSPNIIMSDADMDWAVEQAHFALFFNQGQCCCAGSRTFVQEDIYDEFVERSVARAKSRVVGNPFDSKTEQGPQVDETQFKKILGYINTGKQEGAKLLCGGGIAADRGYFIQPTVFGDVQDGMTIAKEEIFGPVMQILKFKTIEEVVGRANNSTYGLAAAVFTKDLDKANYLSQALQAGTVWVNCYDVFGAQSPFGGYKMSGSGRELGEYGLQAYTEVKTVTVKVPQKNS", "assay": "ALDH2 activity with 20 μM of the compound (Table 3)", "format": "biochemical", "conditions": "20 μM compound", "procedure,_shortened": "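Compound was tested at 20 μM. ALDH2 oxidation of acetaldehyde with NAD+ cofactor was followed spectrophotometrically as NADH accumulation at 340 nm. Activity is expressed relative to the enzyme's baseline activity, taken as 100%.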"}, "PAD wild type mice": {"system": "PAD wild type mice", "assay": "Limb ischemia model for peripheral arterial disease (PAD)", "format": "in vivo", "conditions": "osmotic pump for 28 days", "procedure": "Mice are anesthetized and hair is entirely removed from the surgical area. A longitudinal incision is inguinal crease along the femoral vessels and the connective tissue sheet between the femoral artery and vein is carefully dissected. An opening between the femoral artery and vein is made and the femoral artery is occluded using triple surgical knots. The incision is then closed.\nThe animals under permanent femoral artery occlusion are treated with compounds of formula (I) and the effects of the compounds on functional capacity is assessed in mice using treadmill exercise in a metabolic chamber.\nThe limb ischemia-murine animal model was utilized as a surrogated model for peripheral arterial disease as described in Nature Protocols, 4, 1737-1748 (2009). (Limbourg, A., et. als., Evaluation of postnatal arteriogenesis and angiogenesis in a mouse model of hind-limb ischemia, Nature Protocols, 4, 1737-1748 (2009)). All experiments were run according to national and institutional regulations concerning the use of animals for research purposes and permissions to carry out experiments have to be obtained.\n(§1) The animals, WT mice age 18-22 weeks, were anesthetized with an intraperitoneal (IP) injection of esketamine (100 mg/ml) dose 80-100 mg/kg and xylazine (20 mg/ml) dose 4-6 mg/kg. Hair was entirely removed from the surgical area and a longitudinal incision was made beginning at the inguinal crease along the femoral vessels. The connective tissue sheet between the femoral artery and vein was then carefully dissected and an opening between the femoral artery and vein was made. Artery ligation thread was then used to occlude the femoral artery using triple surgical knots. The incision was then closed and the animals were administered a single dose of buprenorphine (0.1 mg/kg) subcutaneously to control ischemic pain.\n(§2) The animals under permanent femoral artery occlusion at day zero, were treated with ALDH2 activators, Alda-1 and AC112, via osmotic pump for 28 days. The effects of the compounds of the present invention on functional capacity were assessed in mice using treadmill exercise in a metabolic chamber."}, "ALDH2 [2]": {"molecular_target": "T2, ALDH2 (Mus musculus, UniProt P47738)", "T2 construct": "In this study we have also determined the ALDH2 activity in muscle tissue; from tissue; host or cells: skeletal muscle of WT mice with femoral artery occlusion", "T2 sequence (P47738 20-519)": "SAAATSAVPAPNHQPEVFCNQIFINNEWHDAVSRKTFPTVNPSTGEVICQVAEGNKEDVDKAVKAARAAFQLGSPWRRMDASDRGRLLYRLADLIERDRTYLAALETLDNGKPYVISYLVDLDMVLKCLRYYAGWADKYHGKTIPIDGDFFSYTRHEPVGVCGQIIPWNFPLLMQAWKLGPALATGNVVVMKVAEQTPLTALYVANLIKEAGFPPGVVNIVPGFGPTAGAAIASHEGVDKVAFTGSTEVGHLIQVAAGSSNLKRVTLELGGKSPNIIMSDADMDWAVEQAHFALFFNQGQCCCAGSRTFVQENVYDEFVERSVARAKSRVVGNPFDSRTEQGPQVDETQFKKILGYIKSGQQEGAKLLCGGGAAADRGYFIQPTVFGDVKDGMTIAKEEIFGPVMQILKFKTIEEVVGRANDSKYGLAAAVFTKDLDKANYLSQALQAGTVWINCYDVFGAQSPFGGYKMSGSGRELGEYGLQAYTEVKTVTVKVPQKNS", "assay": "ALDH2 activity of muscle tissue in PAD mice", "format": "in vivo", "conditions": "osmotic pump for 28 days", "procedure": "as §1, §2\nIn this study we have also determined the ALDH2 activity in muscle tissue."}}}
{"smiles": "COc1ccc(CNC(=O)c2cc(-c3ncccc3CO)ccc2OCC(C)C)cc1F", "note": "[AC112]", "values": [{"measurement": "activity at 20 µM", "setting": "ALDH2 [1]", "value": "> 250", "unit": "%"}, {"measurement": "pain threshold", "setting": "PAD wild type mice", "value": "improve pain threshold"}, {"measurement": "skeletal muscle resistance to fatigue (contractility measured ex vivo)", "setting": "PAD wild type mice", "value": "improve the skeletal muscle resistance to fatigue"}, {"measurement": "PAD-induced skeletal muscle atrophy", "setting": "PAD wild type mice; WT mice", "value": "minimizes PAD-induced skeletal muscle atrophy"}, {"measurement": "running distance", "setting": "PAD wild type mice; treadmill", "value": "improve"}, {"measurement": "running time", "setting": "PAD wild type mice; treadmill", "value": "improve"}, {"measurement": "ALDH2 activity of muscle tissue", "setting": "ALDH2 [2]", "value": "increased the ALDH2 activity of muscle tissue"}]}
